In patent publication US5620676A, “Biologically active ATP analogs” (priority 1995, dated 1997):
Entries after “also recorded” stand apart in the source; their conditions may differ. Where two headings read alike, the source gives them in different places.

Experiments:
P2U receptors = conditions: literature; cited from earlier work
[1] = tested on: P2Y receptor (aorta endothelium); assay: Relaxation of noradrenalin-contracted rabbit aorta; conditions: rabbit aorta; log molar units
[2] = target: T1, adenylyl cyclase linked P2Y receptor (C6 rat glioma cells) (Rattus norvegicus, UniProt Q9EPX4); assay: Inhibition of adenylyl cyclase in C6 rat glioma cells; format: cell-based; conditions: versus phospholipase C linked turkey erythrocyte receptor
T1 construct: endogenous in cells; host or cells: C6 rat glioma cells
T1 sequence (Q9EPX4 whole entry): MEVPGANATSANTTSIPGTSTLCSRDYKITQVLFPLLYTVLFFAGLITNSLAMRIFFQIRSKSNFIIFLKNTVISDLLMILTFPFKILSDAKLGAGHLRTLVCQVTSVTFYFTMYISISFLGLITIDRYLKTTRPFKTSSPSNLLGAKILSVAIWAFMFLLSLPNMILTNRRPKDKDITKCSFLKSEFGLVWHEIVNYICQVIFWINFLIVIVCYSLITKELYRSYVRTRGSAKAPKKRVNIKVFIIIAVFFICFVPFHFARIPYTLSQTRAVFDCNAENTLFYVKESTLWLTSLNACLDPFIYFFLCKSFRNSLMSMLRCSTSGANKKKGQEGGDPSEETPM
Protocol: This example illustrates the inhibition of adenylyl cyclase activity in C6 rat glioma cells, as a function of the presence of certain ATP analogs in the medium in which the C6 cells were cultured.
Cells were labelled by incubation for 2 hours in the presence of 1 to 2 mCi of tritiated adenine/ml in the medium. Cells were washed twice with HEPES (20 mM, pH 7.5)-buffered Eagle's medium and then preincubated for 10 minutes at 37° C. with fresh medium containing 200 μM 3-isobutyl-1-methylxanthine. Agonist incubations were initiated by the simultaneous addition of 10 μM isoproterenol and various concentrations of nucleotides. The reactions were stopped after 10 minutes of aspiration of the nucleotide-containing medium and addition of 1 ml of ice-cold 5% trichloroacetic acid.

[3] = target: P2Y receptor (mesenteric artery); assay: Relaxation of rabbit mesenteric artery; conditions: log molar units
From the text: Muscular relaxation/contraction: Relaxant responses mediated via P2Y receptors were examined in guinea pig taenia coli, rabbit aorta, and rabbit mesenteric artery, as described by Hoyle et al. (Br. J. Pharmacol., 107, 367-374 (1992a)), Burnstock et al., (Br. J. Pharmacol., 90, 383-391 (1987a)), and Rubino et al., (Eur. J. Pharmacol., 212, 237-240 (1992)).

[4] = target: T2, P2Y receptor (turkey erythrocyte membranes) (Meleagris gallopavo, UniProt P49652); assay: Stimulation of phospholipase C (inositol phosphate formation) in turkey erythrocyte membranes; format: biochemical
T2 construct: from tissue; host or cells: washed turkey erythrocytes, ghosts prepared by hypotonic lysis
T2 sequence (P49652 whole entry): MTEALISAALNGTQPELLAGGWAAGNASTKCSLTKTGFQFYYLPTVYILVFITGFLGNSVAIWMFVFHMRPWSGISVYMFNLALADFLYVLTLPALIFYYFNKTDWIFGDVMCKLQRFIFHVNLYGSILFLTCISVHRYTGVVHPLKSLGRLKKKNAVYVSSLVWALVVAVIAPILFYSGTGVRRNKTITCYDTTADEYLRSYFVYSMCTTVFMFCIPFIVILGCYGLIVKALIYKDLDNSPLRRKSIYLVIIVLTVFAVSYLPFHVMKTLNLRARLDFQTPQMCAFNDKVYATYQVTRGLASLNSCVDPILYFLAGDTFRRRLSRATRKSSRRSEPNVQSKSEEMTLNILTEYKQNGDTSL
Method in brief: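 Erythrocytes were labelled 18-24 h at 37 °C with [3H]myoinositol, and ghosts were made by hypotonic lysis. Ghosts (≈175 μg protein) were incubated 5 min at 30 °C in Hepes buffer pH 7.0 with 1 μM GTPγS and nucleotide analogs. Total [3H]inositol phosphates were purified by anion exchange; K0.5 averaged from 3-8 dose-response curves.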

P2Y receptors = conditions: literature; cited from earlier work
[5] = target: T3, P2Y receptor (taenia coli) (Cavia porcellus, UniProt P59902); conditions: guinea pig taenia coli, cited from earlier work
T3 construct: Relaxant responses mediated via P2Y receptors were examined in guinea pig taenia coli; from tissue; host or cells: guinea pig taenia coli (carbachol-contracted)
T3 sequence (P59902 whole entry): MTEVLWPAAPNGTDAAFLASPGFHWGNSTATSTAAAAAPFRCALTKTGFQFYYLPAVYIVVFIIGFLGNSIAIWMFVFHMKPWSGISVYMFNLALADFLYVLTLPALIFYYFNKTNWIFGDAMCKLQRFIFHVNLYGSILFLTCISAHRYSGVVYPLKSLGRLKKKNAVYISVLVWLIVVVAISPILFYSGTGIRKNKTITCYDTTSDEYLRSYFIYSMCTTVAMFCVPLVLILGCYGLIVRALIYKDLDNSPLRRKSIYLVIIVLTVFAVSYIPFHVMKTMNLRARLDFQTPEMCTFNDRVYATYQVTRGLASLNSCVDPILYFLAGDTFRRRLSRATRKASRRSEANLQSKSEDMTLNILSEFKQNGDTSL

nucleotidases = conditions: Zimmet et al.; Jacobson et al.; cited from earlier work
[6] = target: T3, P2Y receptor (taenia coli); assay: Relaxation of carbachol-contracted guinea pig taenia coli
Method in brief: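 Guinea pig taenia coli precontracted with 50 nM carbachol; relaxation to applied P2Y agonists expressed as percentage relaxation against negative log molar agonist concentration.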

P2X and P2Y receptors [7] = conditions: Satchell and Maguire; cited from earlier work
[8] = target: T4, P2X receptor (urinary bladder) (Cavia porcellus, UniProt A0A286XVA9); assay: Contraction of guinea pig isolated urinary bladder detrussor muscle; conditions: guinea pig urinary bladder
T4 construct: guinea pig isolated urinary bladder detrussor muscle; from tissue; host or cells: guinea pig isolated urinary bladder detrusor muscle

[9] = target: T5, P2X receptor (vas deferens) (Cavia porcellus, UniProt A0A286XVA9); assay: Contraction of guinea pig isolated vas deferens
T5 sequence (A0A286XVA9 1-399): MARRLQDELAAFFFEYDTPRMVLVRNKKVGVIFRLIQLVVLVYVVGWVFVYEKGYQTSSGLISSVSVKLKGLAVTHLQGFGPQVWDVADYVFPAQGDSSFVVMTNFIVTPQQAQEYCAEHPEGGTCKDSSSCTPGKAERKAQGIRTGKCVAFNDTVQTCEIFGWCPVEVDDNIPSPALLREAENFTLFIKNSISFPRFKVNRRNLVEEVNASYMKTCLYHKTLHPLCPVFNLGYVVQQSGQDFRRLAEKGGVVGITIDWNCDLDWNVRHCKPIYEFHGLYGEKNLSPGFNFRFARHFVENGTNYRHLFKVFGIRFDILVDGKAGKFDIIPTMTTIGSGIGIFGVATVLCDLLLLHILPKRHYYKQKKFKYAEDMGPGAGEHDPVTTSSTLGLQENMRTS

P2X and P2Y receptors [10] = assay: Overall activity in the seven P2X and P2Y preparations
[11] = target: T5, P2X receptor (vas deferens); conditions: guinea pig vas deferens; log molar units; footnote e: literature data; cited from earlier work
[12] = target: T6, P2X receptor (saphenous artery) (Oryctolagus cuniculus, UniProt G1U3D6); assay: Contraction of rabbit saphenous artery; conditions: for activation at 10 µM: read-out: response at 10 μM relative to the contraction produced by 1 μM α,MeATP, saph. artery
T6 construct: and rabbit saphenous artery; from tissue; host or cells: rabbit saphenous artery
T6 sequence (G1U3D6 1-399): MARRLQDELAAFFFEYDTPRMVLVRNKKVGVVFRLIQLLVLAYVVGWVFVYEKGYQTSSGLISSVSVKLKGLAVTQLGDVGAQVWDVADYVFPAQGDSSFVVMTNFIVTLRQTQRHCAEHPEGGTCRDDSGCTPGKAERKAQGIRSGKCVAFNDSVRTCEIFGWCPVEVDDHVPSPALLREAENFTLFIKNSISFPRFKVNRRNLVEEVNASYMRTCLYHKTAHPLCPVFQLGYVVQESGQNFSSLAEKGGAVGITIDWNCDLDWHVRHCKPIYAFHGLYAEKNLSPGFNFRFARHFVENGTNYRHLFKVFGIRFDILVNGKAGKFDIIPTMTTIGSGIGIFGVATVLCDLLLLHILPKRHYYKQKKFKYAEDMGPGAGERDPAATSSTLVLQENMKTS
Method in brief: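 Contraction of isolated rabbit saphenous artery, standard organ-bath methods; responses at 10 μM expressed as percentage of contraction produced by 1 μM α,MeATP. Highest analogue concentrations tested were 3-30 […].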

[13] = tested on: P2X receptor (vas deferens); conditions: Burnstock et al. 1985; cited from earlier work
[14] = target: T4, P2X receptor (urinary bladder); conditions: cited from earlier work
[15] = target: T6, P2X receptor (saphenous artery); conditions: Burnstock et al., 1987a; cited from earlier work
[16] = turkey erythrocyte membranes, mean ± S.E.M. for at least 2 determinations, read-out: phosphatidyl inositol metabolism (K0.5, nM) erythrocyte

CSc1nc(N)c2ncn([C@@H]3O[C@H](COP(=O)(O)OP(=O)(O)OP(=O)(O)O)[C@@H](O)[C@H]3O)c2n1 [2-MeS-ATP, 2-methylthio-ATP]
potency at P2U receptors, in words (P2U receptors): much less potent than ATP at P2U -receptors
relaxation pD2, aorta [1]: 6.8
selectivity for the adenylyl cyclase linked (C6 cell) receptor [2]: 7.3 -fold
relaxation pD2, mes. artery [3]: 6.5
EC50 [4, 16]: 8 ± 2 nM
EC50 ([4]; turkey erythrocyte membranes, read-out: K0.5): 8 nM
P2Y receptor affinity/potency, in words (P2Y receptors): high affinity for P2Y receptors; also recorded: One of the most potent known P2Y receptor agonists
pD2, taenia coli, as reported by Hoyle et al. [5]: 8.0±0.15
stability to nucleotidases, in words (nucleotidases): susceptible to ectonucleotidases
EC50 [6]: 0.01 µM

Nc1ncnc2c1nc(Br)n2[C@@H]1O[C@H](COP(=O)(O)OP(=O)(O)OP(=O)(O)O)[C@@H](O)[C@H]1O [8-Br-ATP, 8-Bromoadenosine 5'-triphosphate]
activity at P2 receptors, in words (P2X and P2Y receptors [7]): somewhat active at P2 receptors
activity/potency in words, bladder [8]: limited activity in the urinary bladder
activity/potency in words, vas deferens [9]: inactive in the vas deferens
overall activity in words, all preparations (P2X and P2Y receptors [10]): relatively ineffective at the receptors tested in this study
EC50 [4, 16]: 47400 nM

Nc1ncnc2c1ncn2[C@@H]1O[C@H](COP(=O)(O)OP(=O)(O)OP(=O)(O)O)[C@@H](O)[C@H]1O [ATP, adenosine-5'-triphosphate, reference compound]
contraction pD2, vas [11]: 3.5
relaxation pD2, aorta [1]: 4.5
relaxation pD2, mes. artery [3]: 6.0
EC50 ([4]; K0.5, turkey erythrocyte membranes, read from graph): 10000 nM
EC50 [4, 16]: 2800 ± 700 nM
EC50 [12]: 1780 µM
activation at 10 µM [12]: 5%
EC50 [6]: 0.631 µM
relaxation pD2, taenia coli ([6]; guinea pig taenia coli, log molar units): 6.2 ± 0.08

Nc1ncnc2c1ncn2[C@@H]1O[C@H](COP(=O)(O)CP(=O)(O)OP(=O)(O)O)[C@@H](O)[C@H]1O [a,β-Me-ATP, α,β-methylene-ATP]
contraction pD2, vas [11]: 5.3
activity in words, vas deferens [13]: a potent constrictor
activity/potency in words, bladder [8]: markedly enhanced activity
activity/potency in words, vas deferens [9]: markedly enhanced activity
activity/potency in words, turkey erythrocyte ([4]; turkey erythrocyte membranes): a very weak, yet full agonist
EC50 [4, 16]: > 100000 nM
relaxation pD2, taenia coli ([5]; log molar units, footnote e: literature data): 5.6
contraction produced by 1 μM, saphenous artery ([12]; rabbit saphenous artery, 1 μM): half maximal effect
activation at 10 µM [12]: 5.9%
activity in words, urinary bladder ([14]; Burnstock et al. 1985): a potent constrictor
contraction pD2, bladder ([14]; guinea pig urinary bladder, log molar units, footnote e: literature data): 5.7
activity in words, saphenous artery [15]: a potent constrictor
activity/potency in words, taenia coli ([6]; guinea pig taenia coli): reduced activity in the taenia coli
